Holding throughout (assay): growth of human tumour cells (NCI), 48 h
Test [1] deals with NCI-H522.
The subject of test [2] is SF-539.
Test [3] concerns CCRF-CEM.
Test [4] relates to ACHN.
Test [5] has as its system CAKI-1.
The subject of test [6] is COLO 205.
Test [7] deals with IGROV-1.
The test system of test [8] is SK-MEL-28.
Test [9] concerns A549.
The test system of test [10] is UACC-62.
Test [11] deals with HOP-92.
In test [12] the test system is OVCAR-5.
In test [13] the test system is MOLT-4.
Test [14] has as its system SK-MEL-2.
The subject of test [15] is SNB-19.
For test [16], the system named is OVCAR-8.
The subject of test [17] is OVCAR-3.

SMILES strings stand for the structures.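 1) Cells in 96-well plates. 2) Compound, 48 h, 5 concentrations. 3) Linear interpolation between surrounding doses. 4) Unreached endpoint = highest concentration. GI50 is the concentration that inhibits growth by half.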 The source made the active and inactive calls. No stated cut-off is given here; in the data, active = GI50 up to about 1.1 µM and inactive = higher.

As for `C=CCN(CC=C)CC(C(C)=O)C(c1ccccc1)c1c(O)c2ccccc2oc1=O` (centres undefined), the GI50 in test [1] is 82.4 µM (inactive); in test [2], > 100 µM (inactive); in [3], > 100 µM (inactive); in test [4], > 100 µM (inactive); in [5], > 100 µM (inactive); in test [6], > 100 µM (inactive). For the same compound, the GI50 in test [7], in test [8], in test [9], in [10], in test [11] and in [12] was > 100 µM (inactive) each time. For the same compound, the GI50 in test [13] was > 100 µM (inactive); in test [14] it was > 100 µM (inactive); in [15] it was 15.6 µM (inactive); in test [16] it was > 100 µM (inactive).
In the case of `Cc1ccc(C(=O)/C=C2\Nc3c(c(=O)oc4ccccc34)N=C2NC23CC4CC(CC(C4)C2)C3)cc1`, the GI50 in [1], in [2], in test [3], in test [4], in test [5] and in test [6] was > 100 µM (inactive) each time. Besides, the GI50 is > 100 µM (inactive) in [7]; > 100 µM (inactive) in [8]; > 100 µM (inactive) in test [17]; > 100 µM (inactive) in [9]; > 100 µM (inactive) in test [10]; 49.2 µM (inactive) in test [11]. For the same compound, the GI50 in [12], in test [13], in test [14], in test [15] and in test [16] was > 100 µM (inactive) throughout.
For `CCN(CC)CCCNc1nccc2c(C)c3[nH]c4ccncc4c(=O)c3cc12`, the GI50 is 0.52 µM (active) in [1]; 2.45 µM (inactive) in test [2]; 0.746 µM (active) in test [3]; 1.8 µM (inactive) in test [4]; 1.91 µM (inactive) in test [5]; 2.55 µM (inactive) in test [6]. For the same compound, the GI50 in [7] is 2.93 µM (inactive); in test [8], 3.27 µM (inactive); in [17], 1.8 µM (inactive); in test [9] it was 3.01 µM (inactive); in [10] it was 1.53 µM (inactive); in test [11] it was 1.75 µM (inactive). The GI50 in test [12] is 3.72 µM (inactive); in [13] it was 0.33 µM (active); in [14], 2.89 µM (inactive); in [15] it was 2.87 µM (inactive); in test [16] it was 0.557 µM (active).
Regarding `COC(=O)N1C=CC2=C(C)C3Nc4ccccc4C3C(C)=C2C1` (centres undefined), the GI50 in [1] was 1.49 µM (inactive); in test [2], 4.2 µM (inactive); in test [3], 0.726 µM (active); in [4], 0.521 µM (active); in test [5] it was 5.35 µM (inactive); in test [6], 1.15 µM (inactive). Further, the GI50 is 1.47 µM (inactive) in test [7]; 7.29 µM (inactive) in test [8]; 0.923 µM (active) in test [17]; 1.69 µM (inactive) in test [9]; 1.72 µM (inactive) in test [10]; 2.09 µM (inactive) in test [11]. In addition, the GI50 is 2.72 µM (inactive) in [12]; 0.234 µM (active) in [13]; 1.47 µM (inactive) in [14]; 2.97 µM (inactive) in test [15]; 0.682 µM (active) in test [16].
`CNC(=O)OCc1nccc2c(C)c3[nH]c4ccc(OC)cc4c3cc12`: the GI50 was 5.09 µM (inactive) in test [1]; 3.17 µM (inactive) in test [2]; 1.51 µM (inactive) in test [3]; 1.61 µM (inactive) in test [4]; 19.1 µM (inactive) in test [5]; 2.94 µM (inactive) in test [6]. For the same compound, the GI50 was 4.8 µM (inactive) in test [7]; 9.73 µM (inactive) in [8]; 21.9 µM (inactive) in test [17]; 4.9 µM (inactive) in test [9]; 6.37 µM (inactive) in [10]; 10.6 µM (inactive) in test [11]. The GI50 is 22 µM (inactive) in test [12]; 0.705 µM (active) in [13]; 8.91 µM (inactive) in test [14]; 3.78 µM (inactive) in test [15]; 3.1 µM (inactive) in test [16].
In the case of `O=c1c2c([nH]c3cc4c(cc13)OCO4)-c1ccccc1C2`, the GI50 is 22.4 µM (inactive) in test [1]; 18.1 µM (inactive) in test [2]; 17.7 µM (inactive) in [3]; 19.4 µM (inactive) in test [4]; 39 µM (inactive) in [5]; 17 µM (inactive) in test [6]. In addition, the GI50 in test [7] is 17.7 µM (inactive); in test [8] it was 22.6 µM (inactive); in test [17] it was 22.5 µM (inactive); in test [9] it was 27.1 µM (inactive); in test [10], 17.1 µM (inactive); in test [11] it was 18.3 µM (inactive). Further, the GI50 in test [13] is 24.7 µM (inactive); in [14] it was 13.5 µM (inactive); in test [15] it was 37.1 µM (inactive); in [16], 29.8 µM (inactive).
As for `CCc1cccc(=O)c([O-])c1.CCc1cccc(=O)c([O-])c1.[Bi+3].[Cl-]`, the GI50 was 1.79 µM (inactive) in test [1]; 9.84 µM (inactive) in test [2]; 1.91 µM (inactive) in test [3]; 8.17 µM (inactive) in test [4]; 2.43 µM (inactive) in test [5]; 2.29 µM (inactive) in test [6]. In addition, the GI50 was 6.78 µM (inactive) in test [7]; 5.14 µM (inactive) in test [8]; 5.92 µM (inactive) in test [17]; 8.97 µM (inactive) in test [9]; 9.98 µM (inactive) in [10]; 12.9 µM (inactive) in [11]. The GI50 in test [12] is 16.5 µM (inactive); in test [13] it was 2.22 µM (inactive); in [14] it was 12.7 µM (inactive); in test [15] it was 11 µM (inactive); in test [16] it was 2.96 µM (inactive).
As to `Cc1c(C(=O)O)oc2ccc([N+](=O)[O-])cc12`, the GI50 in test [1], in test [2], in [3], in test [4], in [5] and in test [6] was > 100 µM (inactive) each time. Moreover, the GI50 is > 100 µM (inactive) in test [7]; > 100 µM (inactive) in test [8]; > 100 µM (inactive) in test [17]; > 100 µM (inactive) in test [9]; > 100 µM (inactive) in [10]; 72.4 µM (inactive) in test [11]. For the same compound, the GI50 is > 100 µM (inactive) in test [12]; > 10 µM (inactive) in test [13]; > 100 µM (inactive) in [14]; > 100 µM (inactive) in [15]; > 100 µM (inactive) in [16].
For the compound `CCOc1ccccc1NC(=O)C1=C(C)NC(C)=C(C(=O)Nc2ccccc2OCC)C1c1ccc2c(c1)OCO2`, the GI50 in test [1] was 9.89 µM (inactive); in [2] it was 25.5 µM (inactive); in test [3] it was 24.2 µM (inactive); in test [4], 36.8 µM (inactive); in test [5], 21.5 µM (inactive); in [6] it was 18.2 µM (inactive). In addition, the GI50 was 25 µM (inactive) in test [7]; 35.2 µM (inactive) in test [8]; 17 µM (inactive) in [17]; 28.2 µM (inactive) in [9]; 7.36 µM (inactive) in test [11]; 53.2 µM (inactive) in [12]. The GI50 in test [13] is 12.1 µM (inactive); in test [14], 18.7 µM (inactive); in test [15], 95.9 µM (inactive); in test [16], 47.3 µM (inactive).
On to `Nn1c(=O)n(Cc2ccccc2)n(-c2ccccc2)c1=O`, for which the GI50 in test [1], in [2], in test [3], in test [4], in test [5] and in test [7] was > 100 µM (inactive) throughout. Also, the GI50 in [8], in test [17], in test [9], in [10], in test [11] and in test [12] was > 100 µM (inactive) throughout. Further, the GI50 in test [13], in [14], in test [15] and in test [16] was > 100 µM (inactive) in each case.
As for `NC1=NC(=O)/C(=C/c2ccccc2[N+](=O)[O-])C(N)=N1`, the GI50 in test [1], in test [2], in test [3], in test [4], in test [5] and in [6] was > 100 µM (inactive) each time. The GI50 in test [7], in [8], in test [17], in test [9], in test [10] and in test [11] was > 100 µM (inactive) in each case. The GI50 in test [12], in test [13], in test [14], in test [15] and in test [16] was > 100 µM (inactive) in each case.
As to `CCOC(=O)C1=C(C)NC(=S)NC1c1ccccc1` (centres undefined), the GI50 was > 63.8 µM (inactive) in test [1]; > 100 µM (inactive) in test [2]; > 45.1 µM (inactive) in test [3]; > 100 µM (inactive) in test [4]; > 20 µM (inactive) in test [5]; > 45 µM (inactive) in [6]. The GI50 in test [7] was > 100 µM (inactive); in [8], > 100 µM (inactive); in test [17] it was > 100 µM (inactive); in test [9], > 100 µM (inactive); in test [10], > 71.3 µM (inactive); in [11], > 100 µM (inactive). Besides, the GI50 in test [12] is > 100 µM (inactive); in test [13], 59.6 µM (inactive); in test [14], > 100 µM (inactive); in test [16] it was > 100 µM (inactive).

The values are drawn from ChEMBL document CHEMBL1201862, “PubChem BioAssay data set” (2004).
